For 22 compounds, IC50, cell death and anti-tumor activity results are on record in US9663525B2, “Pyrazolopyrimidinyl inhibitors of ubiquitin-activating enzyme” (Millennium Pharmaceuticals, Inc., priority 2012, dated 2017).

The target in one assay is mouse UAE (Mus musculus (Mouse), UniProt Q02053). The assay is described as follows: Ubiquitin Activating Enzyme (UAE) HTRF assay, mouse UAE. On the technique in general: Time-resolved FRET reads energy transfer from a long-lived donor to a nearby acceptor.
A further assay deals with recombinant human UAE (Homo sapiens (Human), UniProt P22314). As to the kind of experiment: Ubiquitin Activating Enzyme (UAE) HTRF assay, human UAE.
Assay [1] concerns leukemia and myeloma cell lines. The conditions noted are these: cited from earlier work.
Assay [2] deals with mouse acute myeloid leukemia (AML model). The following applies: cited from earlier work.

SMILES strings stand for the structures. Where two headings read alike, the source gives them in different places.

Chain of mouse UAE (Q02053 whole entry): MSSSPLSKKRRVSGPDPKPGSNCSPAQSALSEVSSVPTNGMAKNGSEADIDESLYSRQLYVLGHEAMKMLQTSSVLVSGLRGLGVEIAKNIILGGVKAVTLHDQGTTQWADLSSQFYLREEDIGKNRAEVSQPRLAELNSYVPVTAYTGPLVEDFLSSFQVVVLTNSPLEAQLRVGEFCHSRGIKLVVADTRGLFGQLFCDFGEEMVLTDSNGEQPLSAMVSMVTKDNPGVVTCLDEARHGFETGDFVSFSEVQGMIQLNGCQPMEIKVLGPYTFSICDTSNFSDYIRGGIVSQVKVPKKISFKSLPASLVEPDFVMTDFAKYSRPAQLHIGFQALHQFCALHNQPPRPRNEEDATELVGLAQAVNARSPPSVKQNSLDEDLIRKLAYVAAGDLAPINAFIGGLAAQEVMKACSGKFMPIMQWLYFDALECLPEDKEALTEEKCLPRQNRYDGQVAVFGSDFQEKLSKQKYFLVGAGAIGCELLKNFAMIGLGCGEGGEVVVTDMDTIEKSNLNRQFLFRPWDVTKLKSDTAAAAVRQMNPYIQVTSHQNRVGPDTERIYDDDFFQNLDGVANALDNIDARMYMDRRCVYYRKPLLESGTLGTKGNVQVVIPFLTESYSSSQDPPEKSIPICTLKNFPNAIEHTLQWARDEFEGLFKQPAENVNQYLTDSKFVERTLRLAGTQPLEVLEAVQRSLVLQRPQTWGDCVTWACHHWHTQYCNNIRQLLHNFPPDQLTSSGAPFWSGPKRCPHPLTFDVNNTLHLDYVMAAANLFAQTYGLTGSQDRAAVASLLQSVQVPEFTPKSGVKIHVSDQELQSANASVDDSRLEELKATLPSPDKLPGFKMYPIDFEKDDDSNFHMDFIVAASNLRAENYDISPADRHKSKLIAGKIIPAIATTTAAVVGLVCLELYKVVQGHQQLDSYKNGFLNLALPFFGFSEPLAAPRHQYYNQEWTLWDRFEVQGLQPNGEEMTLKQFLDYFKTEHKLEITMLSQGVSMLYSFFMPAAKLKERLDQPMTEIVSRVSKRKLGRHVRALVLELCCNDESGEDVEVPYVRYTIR
Chain of recombinant human UAE (P22314 whole entry): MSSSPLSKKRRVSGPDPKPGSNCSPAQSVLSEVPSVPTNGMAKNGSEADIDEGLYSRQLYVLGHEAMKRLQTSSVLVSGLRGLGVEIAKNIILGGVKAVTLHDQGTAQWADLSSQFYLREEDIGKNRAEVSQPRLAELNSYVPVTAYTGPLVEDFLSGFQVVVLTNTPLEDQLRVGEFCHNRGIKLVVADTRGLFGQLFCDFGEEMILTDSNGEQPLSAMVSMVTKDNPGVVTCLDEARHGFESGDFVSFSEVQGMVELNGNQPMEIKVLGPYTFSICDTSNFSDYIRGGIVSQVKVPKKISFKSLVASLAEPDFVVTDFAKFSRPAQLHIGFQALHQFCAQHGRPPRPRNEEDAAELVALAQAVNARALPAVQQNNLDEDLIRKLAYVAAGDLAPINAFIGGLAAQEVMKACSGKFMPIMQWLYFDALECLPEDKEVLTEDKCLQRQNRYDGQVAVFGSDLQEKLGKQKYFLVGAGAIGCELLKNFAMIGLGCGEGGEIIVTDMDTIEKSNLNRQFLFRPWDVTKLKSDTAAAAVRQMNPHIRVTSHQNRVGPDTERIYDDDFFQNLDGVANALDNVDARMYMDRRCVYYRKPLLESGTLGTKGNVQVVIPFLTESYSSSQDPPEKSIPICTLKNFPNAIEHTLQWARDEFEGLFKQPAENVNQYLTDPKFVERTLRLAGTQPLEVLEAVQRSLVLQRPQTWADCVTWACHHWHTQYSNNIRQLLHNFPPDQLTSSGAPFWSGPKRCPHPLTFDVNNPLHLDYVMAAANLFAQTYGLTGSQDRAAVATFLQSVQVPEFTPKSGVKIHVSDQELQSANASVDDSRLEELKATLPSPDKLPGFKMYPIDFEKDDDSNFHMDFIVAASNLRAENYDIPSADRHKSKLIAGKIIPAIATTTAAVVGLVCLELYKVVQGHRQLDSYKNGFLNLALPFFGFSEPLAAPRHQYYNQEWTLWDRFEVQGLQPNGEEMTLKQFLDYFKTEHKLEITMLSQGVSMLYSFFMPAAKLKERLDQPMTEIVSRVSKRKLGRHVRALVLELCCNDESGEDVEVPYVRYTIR
Experimental for mouse UAE: (§1) After incubation for 120 minutes, quantification of the FRET is performed on the Pherostar (BMG).
(§2) For compounds whose values are marked with an asterisk (*), mouse UAE was used. For all other compounds, human UAE was used.
Experimental for recombinant human UAE: as §1, §2

For the compound `NS(=O)(=O)OC[C@H]1C[C@@H](Nc2ccnc3cc(-c4ccccc4)nn23)[C@H](O)[C@@H]1O` (racemic) [Compound I-001, (rac)-((1R,2R,3S,4R)-2,3-dihydroxy-4-(2-phenylpyrazolo[1,5-a]pyrimidin-7-ylamino)cyclopentyl)methyl rel-sulfamate], the IC50 – broadly, the concentration that inhibits the measured activity by half – at mouse UAE lay within 10 to 100 nM.

Take `NS(=O)(=O)OC[C@H]1C[C@@H](Nc2ccnc3cc(-c4cccc5ccccc45)nn23)[C@H](O)[C@@H]1O` (racemic) [Compound I-002, (rac)-((1R,2R,3S,4R)-2,3-dihydroxy-4-{[2-(1-naphthyl)pyrazolo[1,5-a]-pyrimidin-7-yl]amino}cyclopentyl)methyl rel-sulfamate]: on mouse UAE, the IC50 was under 10 nM.

`NS(=O)(=O)OC[C@H]1C[C@@H](Nc2ccnc3cc(-c4cccc(Cl)c4)nn23)[C@H](O)[C@@H]1O` (racemic) [Compound I-005, (rac)-((1R,2R,3S,4R)-4-((2-(3-Chlorophenyl)pyrazolo[1,5-a]pyrimidin-7-yl)amino)-2,3-dihydroxycyclopentyl)methyl rel-sulfamate]: the IC50 against mouse UAE is under 10 nM.

For `NS(=O)(=O)OC[C@H]1C[C@@H](Nc2cc(Cl)nc3cc(-c4ccccn4)nn23)[C@H](O)[C@@H]1O` (racemic) [Compound I-011, (rac)-((1R,2R,3S,4R)-4-(5-chloro-2-(pyridin-2-yl)pyrazolo[1,5-a]pyrimidin-7-ylamino)-2,3-dihydroxycyclopentyl)methyl rel-sulfamate], the IC50 on mouse UAE lay within 100 to 1000 nM.

With `NS(=O)(=O)OC[C@H]1C[C@@H](Nc2ccnc3cc(-c4ccccn4)nn23)[C@H](O)[C@@H]1O` (racemic) [Compound I-012, (rac)-[(1R,2R,3S,4R)-2,3-dihydroxy-4-{[2-(pyridin-2-yl)pyrazolo[1,5-a]pyrimidin-7-yl]amino}cyclopentyl]methyl rel-sulfamate], the IC50 at mouse UAE fell in the range of 10 to 100 nM.

`NS(=O)(=O)OC[C@H]1C[C@@H](Nc2ccnc3cc(-c4csc5cc(Cl)ccc45)nn23)[C@H](O)[C@@H]1O` (racemic) [Compound I-091, (rac)-((1R,2R,3S,4R)-4-(2-(6-chlorobenzo[b]thiophen-3-yl)pyrazolo[1,5-a]pyrimidin-7-ylamino)-2,3-dihydroxycyclopentyl)methyl rel-sulfamate] yielded an IC50 on mouse UAE of under 10 nM.

As for `CC(CO)(CCl)c1cccc(-c2cc3nccc(N[C@@H]4C[C@H](COS(N)(=O)=O)[C@@H](O)[C@H]4O)n3n2)c1` (relative stereo) [Compound I-123, (rac)-{(1R,2R,3S,4R)-4-[(2-{3-[2-chloro-1-(hydroxymethyl)-1-methylethyl]phenyl}pyrazolo[1,5-a]pyrimidin-7-yl)amino]-2,3-dihydroxycyclopentyl}methyl rel-sulfamate], the IC50 on recombinant human UAE is under 10 nM.

As for `NS(=O)(=O)OC[C@H]1C[C@@H](Nc2ccnc3cc(-c4cccc5ccccc45)nn23)[C@H](O)[C@@H]1O` [Compound I-098, (s.e.)-((1R,2R,3S,4R)-2,3-dihydroxy-4-{[2-(1-naphthyl)pyrazolo[1,5-a]pyrimidin-7-yl]amino}cyclopentyl)methyl sulfamate], the IC50 at recombinant human UAE (human UAE) is under 10 nM.

Regarding `COc1ccc(OC(F)(F)F)cc1-c1cc2nccc(N[C@@H]3C[C@H](COS(N)(=O)=O)[C@@H](O)[C@H]3O)n2n1` [Compound I-102, (s.e)-[(1R,2R,3S,4R)-2,3-dihydroxy-4-({2-[2-methoxy-5-(trifluoromethoxy)-phenyl]pyrazolo[1,5-a]pyrimidin-7-yl}amino)cyclopentyl]methyl sulfamate], the IC50 on recombinant human UAE (human UAE) is under 10 nM.

`NS(=O)(=O)OC[C@H]1C[C@@H](Nc2ccnc3cc(-c4cccc5c4oc4ccccc45)nn23)[C@H](O)[C@@H]1O` [Compound I-103, (s.e.)-((1R,2R,3S,4R)-4-(2-(dibenzo[b,d]furan-4-yl)pyrazolo[1,5-a]pyrimidin-7-ylamino)-2,3-dihydroxycyclopentyl)methyl sulfamate]: the IC50 on recombinant human UAE (human UAE) is under 10 nM.

With `COc1ccc2ccccc2c1-c1cc2nccc(N[C@@H]3C[C@H](COS(N)(=O)=O)[C@@H](O)[C@H]3O)n2n1` [Compound I-104, (s.e.)-((1R,2R,3S,4R)-2,3-dihydroxy-4-(2-(2-methoxynaphthalen-1-yl)pyrazolo[1,5-a]pyrimidin-7-ylamino)cyclopentyl)methyl sulfamate], the IC50 at recombinant human UAE (human UAE) is under 10 nM.

Take `COc1ccc(-c2cc3nccc(N[C@@H]4C[C@H](COS(N)(=O)=O)[C@@H](O)[C@H]4O)n3n2)c2ccccc12` [Compound I-106, (s.e.)-((1R,2R,3S,4R)-2,3-dihydroxy-4-(2-(4-methoxynaphthalen-1-yl)pyrazolo[1,5-a]pyrimidin-7-ylamino)cyclopentyl)methyl sulfamate]: the IC50 at recombinant human UAE (human UAE) is under 10 nM.

As for `CN(C)c1ccc(-c2cc3nccc(N[C@@H]4C[C@H](COS(N)(=O)=O)[C@@H](O)[C@H]4O)n3n2)c2ccccc12` [Compound I-107, (s.e.)-((1R,2R,3S,4R)-4-(2-(4-(dimethylamino)naphthalen-1-yl)pyrazolo[1,5-a]pyrimidin-7-ylamino)-2,3-dihydroxycyclopentyl)methyl sulfamate], the IC50 at recombinant human UAE (human UAE) was under 10 nM.

Take `CC(C)Oc1ccc2ccccc2c1-c1cc2nccc(N[C@@H]3C[C@H](COS(N)(=O)=O)[C@@H](O)[C@H]3O)n2n1` [Compound I-109, (s.e.)-((1R,2R,3S,4R)-2,3-dihydroxy-4-(2-(2-isopropoxynaphthalen-1-yl)pyrazolo[1,5-a]pyrimidin-7-ylamino)cyclopentyl)methyl sulfamate]: the IC50 on recombinant human UAE (human UAE) was under 10 nM.

For the compound `NS(=O)(=O)OC[C@H]1C[C@@H](Nc2ccnc3cc(-c4c(OC(F)F)ccc5ccccc45)nn23)[C@H](O)[C@@H]1O` [Compound I-110, (s.e.)-((1R,2R,3S,4R)-4-(2-(2-(difluoromethoxy)naphthalen-1-yl)pyrazolo[1,5-a]pyrimidin-7-ylamino)-2,3-dihydroxycyclopentyl)methyl sulfamate], the IC50 at recombinant human UAE (human UAE) was under 10 nM.

For `NS(=O)(=O)OC[C@H]1C[C@@H](Nc2ccnc3cc(-c4cccc5cc(C(F)F)ccc45)nn23)[C@H](O)[C@@H]1O` [Compound I-111, (s.e.)-((1R,2R,3S,4R)-4-(2-(6-(difluoromethyl)naphthalen-1-yl)pyrazolo[1,5-a]pyrimidin-7-ylamino)-2,3-dihydroxycyclopentyl)methyl sulfamate], the IC50 on recombinant human UAE (human UAE) was under 10 nM.

Regarding `NS(=O)(=O)OC[C@H]1C[C@@H](Nc2ccnc3cc(-c4ccc(OC(F)F)c5ccccc45)nn23)[C@H](O)[C@@H]1O` [Compound I-112, (s.e.)-((1R,2R,3S,4R)-4-(2-(4-(difluoromethoxy)naphthalen-1-yl)pyrazolo[1,5-a]pyrimidin-7-ylamino)-2,3-dihydroxycyclopentyl)methyl sulfamate], the IC50 on recombinant human UAE (human UAE) is under 10 nM.

Take `NS(=O)(=O)OC[C@H]1C[C@@H](Nc2ccnc3cc(-c4c(Cl)cc(Cl)c5ccccc45)nn23)[C@H](O)[C@@H]1O` [Compound I-117, (s.e.)-((1R,2R,3S,4R)-4-(2-(2,4-dichloronaphthalen-1-yl)pyrazolo[1,5-a]pyrimidin-7-ylamino)-2,3-dihydroxycyclopentyl)methyl sulfamate]: on recombinant human UAE, the IC50 lay in the range of 10 to 100 nM.

As to `COc1ccc(SC(F)(F)F)cc1-c1cc2nccc(N[C@@H]3C[C@H](COS(N)(=O)=O)[C@@H](O)[C@H]3O)n2n1` [Compound I-120, (s.e.)-((1R,2R,3S,4R)-2,3-dihydroxy-4-(2-(2-methoxy-5-(trifluoromethylthio)-phenyl)pyrazolo[1,5-a]pyrimidin-7-ylamino)cyclopentyl)methyl sulfamate], the IC50 at recombinant human UAE (human UAE) is under 10 nM.

Turning to `NS(=O)(=O)OC[C@H]1C[C@@H](Nc2c(Cl)cnc3c(Cl)c(-c4cccc(SC(F)(F)F)c4)nn23)[C@H](O)[C@@H]1O` [Compound I-124, (s.e.)-{(1R,2R,3S,4R)-4-[(3,6-dichloro-2-{3-[(trifluoromethyl)sulfanyl]phenyl}pyrazolo[1,5-a]pyrimidin-7-yl)amino]-2,3-dihydroxycyclopentyl}methyl sulfamate], the IC50 on recombinant human UAE is 100 to 1000 nM.

In the case of `NS(=O)(=O)OC[C@H]1C[C@@H](Nc2c(Cl)cnc3cc(-c4cccc(SC(F)(F)F)c4)nn23)[C@H](O)[C@@H]1O` [Compound I-125, (s.e.)-{(1R,2R,3S,4R)-4-[(6-chloro-2-{3-[(trifluoromethyl)sulfanyl]phenyl}pyrazolo[1,5-a]pyrimidin-7-yl)amino]-2,3-dihydroxycyclopentyl}methyl sulfamate], the IC50 on recombinant human UAE lay within 100 to 1000 nM.

With `O=C1NN(c2ccc(F)c(Cl)c2)C(=O)/C1=C\c1ccc([N+](=O)[O-])o1` [PYZD-4409], the cell death result in assay [1] is reported as “induced cell death”. Further, the anti-tumor activity entry in assay [2] is recorded as “demonstrated anti-tumor activity”.
